Results from PMC8116058, “De novo macrocyclic peptides dissect energy coupling of a heterodimeric ABC transporter by multimode allosteric inhibition” (eLife, 2021).

Assays:
[1] = test system: TmrAB; assay: Competition of C4F peptide binding by CP^Bs (fluorescence anisotropy); set-up: species or system Thermus thermophilus
Text: (§1) To elucidate the mechanistic basis for the inhibition of ATP hydrolysis and substrate transport, we investigated the effects of CPs on substrate binding. In the first approach, fluorescent CP^Fs were used as reporters in fluorescence polarization. […] In addition, we examined the impact of CP^Bs on ATP binding to TmrAB by scintillation proximity assays (SPA) (Figure 4C). […] Taken together, CPs are high-affinity allosteric inhibitors of TmrAB that leave ATP binding and substrate interaction largely unaffected, while impairing ATP hydrolysis and substrate translocation across the membrane.
(§2) Figure 4. […] (A) CP^Fs binding TmrAB is not affected by substrate peptide binding. […] For competition, C4^ATTO655 peptide (2 µM) or R9LQK peptide (200 µM) were added. (B) Binding of C4F peptide is not affected by CP^Bs. C4F peptides (50 nM) were mixed with TmrAB (4 µM), and fluorescence anisotropy was monitored as described in (A). For competition, C4^ATTO655 (10 µM) or CP^Bs (6 µM) were added. […] TmrAB (0.2 µM) were immobilized on SPA beads and incubated with ATP (3 μM, traced with ^3H-ATP) in the presence and absence of CP^Bs (1 µM each) for 30 min on ice. ATP binding was monitored by SPA. Background values were determined after releasing TmrAB complexes from the beads by adding imidazole (200 mM). The background signal in the absence of CP^Bs was set to 0 cpm. […] As this is an equilibrium experiment, this can be rationalized by the fact that CP13 stabilizes the ATP-bound OF conformer. Figure 4—source data 1. Source data for Figure 4.
(§3) To determine equilibrium binding constants, CP^Fs (50 nM) were incubated with increasing concentrations of TmrAB-containing or empty liposomes. To probe the conformational selectivity, CP^Fs (50 nM) were mixed with detergent-solubilized IF TmrAB or OF TmrA^EQB. Before, OF TmrA^EQB was nucleotide-trapped by incubation with ATP (1 mM) and MgCl2 (3 mM) in the absence of CP^Fs for 5 min at 45°C. […] For peptide competition studies, RRYC^fluoresceinKSTEL (C4F, 50 nM) were incubated with detergent-solubilized TmrAB (4 µM), CP^Bs (6 µM), or C4^ATTO655 (10 µM). […] Fluorescence anisotropy was analyzed at λex/em of 485/520 nm using a microplate reader (CLARIOstar, BMG LABTECH). Fluorescence anisotropy was calculated using:(1) r=I||−I⊥/I||+2⋅I⊥ with I||: parallel intensity and I⊥: perpendicular intensity. Binding of CP^Fs were fitted by a one-site binding model (Langmuir 1:1) using:(2) Y=Bmax∙[L]/KD+[L] with Y: binding, Bmax: maximal binding, KD: equilibrium dissociation constant, and [L]: ligand concentration. Data represent mean ± SD from three experiments.

[2] = test system: TmrAB; assay: Competition of CP^F binding by substrate peptides (fluorescence anisotropy); set-up: species or system Thermus thermophilus; settings: C4^ATTO655 2 µM or R9LQK 200 µM, above their KD values
Text: as §1, §2, §3

[3] = test system: wild-type TmrAB; assay: Nucleotide occlusion, wild-type TmrAB; format: biochemical, Thermus thermophilus; settings: TmrAB 2 µM; CP^F 4 µM or orthovanadate 1 mM; ATP 1 mM traced with [α32P]-ATP; 5 min 45°C; normalized to vanadate-trapped state
Experimental: Figure 5. […] (A, B) CP6^F (A) or CP13^F (B, 50 nM each) were incubated with increasing concentrations of detergent-solubilized inward-facing TmrAB (in the absence of Mg-ATP) or outward-facing TmrA^EQB, which was trapped with Mg-ATP (1 mM) for 5 min at 45°C as described ([Hofmann et al., 2019]; [Stefan et al., 2020]). Immediately after, the fluorescence anisotropy was assayed at λex/em = 485/520 nm. The difference in fluorescence polarization was normalized to free and fully bound CP^F. Data were fitted by a one-site binding model. […] TmrAB (2 µM each) were mixed with CP^Fs (4 µM), ATP (1 mM, traced with [α^32P]-ATP), and MgCl2 (5 mM) for 5 min at 4°C or 45°C. Cold ATP (10 mM) was added, and freely exchangeable nucleotides were removed by rapid gel filtration. Occluded nucleotides were analyzed by thin layer chromatography and autoradiography. Representative radiograms for independent triplicates are shown. (D) Stably occluded nucleotides, [α^32P]-ATP and [α^32P]-ADP, were quantified by autoradiography. Data were normalized to the vanadate-trapped state. In (A, B, D), mean values ± SD (n = 3) are shown. Figure 5—source data 1. Source Data for Figure 5. Figure 5—figure supplement 1. […] (A) CP^Fs (50 nM each) were incubated with increasing concentrations of detergent-solubilized IF TmrAB in the inward-facing (IF) conformation (absence of Mg-ATP) or TmrA^EQB populated in the outward-facing (OF) conformation, which was trapped in the OF conformation by Mg-ATP (1 mM) after 5 min incubation at 45°C. The difference in fluorescence polarization was normalized to unbound (0%) and 100% bound CP^F. Data were fitted by a one-site binding model. Fluorescence anisotropy was recorded at λex/em = 485/520 nm. […] TmrA^EQB (2 µM) were incubated in the absence and presence of CP^Fs (4 µM each), ATP (1 mM, traced with [α^32P]-ATP), and MgCl2 (5 mM) for 5 min at 4°C or 45°C. Cold ATP (10 mM) was added, and free nucleotides were removed by rapid gel filtration. Occluded nucleotides were analyzed by thin layer chromatography and autoradiography. Representative radiograms for independent triplicates are shown. […] Figure 5—figure supplement 1—source data 1.
We also examined the impact of CP^Fs on the IF-to-OF transition of wild-type TmrAB induced by ATP binding through nucleotide occlusion (stable trapping) as the readout. We induced the IF-to-OF switch with radiotraced [α^32P]-ATP for 5 min at 45°C in the presence and absence of CPs and removed unbound nucleotides by rapid gel filtration. Subsequently, the occluded nucleotides were identified and quantified by thin layer chromatography and autoradiography (Figure 5C, D).
Detergent-solubilized TmrAB (2 µM) were incubated with ATP (1 mM) traced with [α^32P]-ATP (Hartmann Analytic), MgCl2 (5 mM), CP^Fs (4 µM), or orthovanadate (1 mM) for 5 min at 45°C. Cold ATP (10 mM) was added, and unbound nucleotides were removed by rapid gel filtration (Bio-Spin columns P-30, Bio-Rad). ATP (10 mM) was added, and samples were spotted onto polyethyleneimine cellulose plates (Merck Millipore). Thin-layer chromatography was performed using 0.75 M KH2PO4 pH 3.4.

[4] = target: T1, TmrAB reconstituted in liposomes (Thermus thermophilus, UniProt Q72J04+Q72J05); assay: Filter-based transport assay, CP^Fs tested as substrates; format: biochemical; settings: TmrAB 0.4 µM in liposomes, C4F 3 µM or CP^F 1 µM, 5 min 45°C
T1 sequence (Q72J05 1-600): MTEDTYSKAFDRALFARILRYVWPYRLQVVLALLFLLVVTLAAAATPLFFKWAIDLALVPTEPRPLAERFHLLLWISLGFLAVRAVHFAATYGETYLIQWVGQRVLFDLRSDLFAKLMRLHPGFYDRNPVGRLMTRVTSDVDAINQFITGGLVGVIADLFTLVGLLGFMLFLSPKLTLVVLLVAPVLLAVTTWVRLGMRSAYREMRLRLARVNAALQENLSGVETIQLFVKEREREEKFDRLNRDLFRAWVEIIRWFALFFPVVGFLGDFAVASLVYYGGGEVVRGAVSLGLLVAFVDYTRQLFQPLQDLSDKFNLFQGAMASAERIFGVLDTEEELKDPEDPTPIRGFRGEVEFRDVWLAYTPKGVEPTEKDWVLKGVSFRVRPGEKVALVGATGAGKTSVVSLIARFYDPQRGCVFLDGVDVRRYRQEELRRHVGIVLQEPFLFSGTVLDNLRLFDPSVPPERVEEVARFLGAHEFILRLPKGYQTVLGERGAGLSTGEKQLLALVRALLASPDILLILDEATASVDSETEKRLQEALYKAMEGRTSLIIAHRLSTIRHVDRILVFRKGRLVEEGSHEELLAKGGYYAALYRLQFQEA
T1 sequence (Q72J04 1-578): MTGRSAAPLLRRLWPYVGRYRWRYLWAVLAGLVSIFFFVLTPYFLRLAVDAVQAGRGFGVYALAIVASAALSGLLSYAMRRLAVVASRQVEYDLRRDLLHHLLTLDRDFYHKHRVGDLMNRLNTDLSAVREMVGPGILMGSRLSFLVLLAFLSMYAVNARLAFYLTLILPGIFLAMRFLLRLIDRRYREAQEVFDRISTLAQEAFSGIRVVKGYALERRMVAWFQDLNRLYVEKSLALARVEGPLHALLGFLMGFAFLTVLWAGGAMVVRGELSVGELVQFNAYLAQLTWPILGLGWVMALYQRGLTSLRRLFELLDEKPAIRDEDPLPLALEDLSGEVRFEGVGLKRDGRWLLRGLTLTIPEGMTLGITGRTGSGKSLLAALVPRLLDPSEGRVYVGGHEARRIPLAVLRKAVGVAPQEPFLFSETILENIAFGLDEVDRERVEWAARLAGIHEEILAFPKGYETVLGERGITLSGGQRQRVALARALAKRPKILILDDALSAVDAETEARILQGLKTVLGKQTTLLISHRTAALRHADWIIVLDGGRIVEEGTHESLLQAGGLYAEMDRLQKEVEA
Text: In order to investigate the functional impact of CPs, we examined the effect of the CPs on ATP hydrolysis and substrate transport of TmrAB (Figure 3A). We reconstituted TmrAB in liposomes and first assayed the ATPase activity. […] We next set out to investigate peptide transport by TmrAB using a filter-based transport assay. To investigate whether CPs are recognized as substrates by TmrAB, we added fluorescein-labeled CP^Fs and examined ATP-dependent translocation. In contrast to the linear substrate peptide C4F, none of the CP^Fs were transported by TmrAB (Figure 3C). Next, we examined ATP-dependent transport of C4F peptides in the presence and absence of the different CPs.
Figure 3. CP^Fs are potent inhibitors of ATP turnover and substrate transport. (A) Experimental scheme of ATP hydrolysis and peptide transport by TmrAB. (B) CP^Fs inhibit ATP hydrolysis. TmrAB in liposomes (100 nM) was incubated with ATP (2 mM, traced with [γ^32P]-ATP), and MgCl2 (5 mM) in the presence and absence of CP^Fs (1 µM) for 10 min at 45°C. Autohydrolysis was determined in the absence of TmrAB, and background turnover was conducted in the presence of EDTA (10 mM). Release of [γ^32P] was quantified by thin layer chromatography. (C) CP^Fs are not transported by TmrAB. TmrAB (0.4 µM) reconstituted in liposomes was incubated with C4F peptide (3 µM) or CP^Fs (1 µM) in the presence of ATP/ADP (3 mM) and MgCl2 (5 mM) for 5 min at 45°C. Since CP^Fs were dissolved in maximal 0.5% (v/v) of DMSO, C4F plus 0.5% DMSO served as control. Proteoliposomes were washed on filter plates, and transported peptides were quantified at λex/em = 485/520 nm. (D) Inhibition of substrate translocation. TmrAB in liposomes (0.4 µM) were incubated with C4F peptide (3 µM), ATP/ADP (3 mM), and MgCl2 (5 mM) in the presence and absence of CP^Fs (1 µM) for 15 min at 45°C. Transported peptides were quantified as described in (C). In (B–C), mean values ± SD (n = 3) are shown. Figure 3—source data 1. Source data for Figure 3.
TmrAB in liposomes (0.4 µM) were incubated with ATP/ADP (3 mM), MgCl2 (5 mM), C4F peptide (3 µM), and CP^Fs (1 µM) for 15 min at 45°C. […] Proteoliposomes were solubilized by adding SDS (1% [v/v]) in transport buffer for 10 min at 20°C. Transported peptides were quantified at λex/em = 485/520 nm using a microplate reader (CLARIOstar, BMG LABTECH).

## RRYC^ATTO655KSTEL [C4^ATTO655, reference compound]
[1]; C4F 50 nM + TmrAB 4 µM + competitor (CP^B 6 µM or C4^ATTO655 10 µM)
  Bound C4F peptide, fluorescence anisotropy: 0.045
[1]; CP^B 6 µM or C4^ATTO655 10 µM as competitor
  Competition of C4F peptide binding: interfered with C4F peptide binding
[2]
  Effect of transported peptides on CP^F binding to TmrAB: did not affect binding of CP^Fs to TmrAB

## [O]=[V]([O-])([O-])[O-] [Vanadate, orthovanadate, reference compound]
[3]
  Occluded nucleotides, ADP: 56.67%
  Occluded nucleotides, ATP: 62.96%

## RRYC^fluoresceinKSTEL [C4F, reference compound]
[1]; listed as -: baseline of C4F 50 nM
  Bound C4F peptide, fluorescence anisotropy: 0.023
[1]; listed as C4F: C4F 50 nM + TmrAB 4 µM, no competitor
  Bound C4F peptide, fluorescence anisotropy: 0.129
[4]; ADP 3 mM (background)
  Transported peptide: 0.00 µmol·g/min
[4]; ATP 3 mM
  Transported peptide: 1.64 µmol·g/min

## RRYQKSTEL [R9LQK, reference compound]
[2]
  Effect of transported peptides on CP^F binding to TmrAB: did not affect binding of CP^Fs to TmrAB
